Results from article PMC5810286, “Niemann-Pick C2 Proteins: A New Function for an Old Family” (Frontiers in Physiology, 2018).
“Also recorded” adds a separate entry of the source.

What was measured:
HarmNPC2-1 [1] = biological target: T1, HarmNPC2-1 (Helicoverpa armigera, UniProt A0A2W1BYA3); assay: Competitive binding experiments (displacement of 1-NPN); conditions: for binding / affinity for HarmNPC2-1 (in words): competitive binding with 1-NPN, ligand 0.5–16 μM; for displacing the fluorescent probe from the complex: concentrations up to 16 μM, protein and 1-NPN both 2 μM
T1 sequence (A0A2W1BYA3 entry or part of it): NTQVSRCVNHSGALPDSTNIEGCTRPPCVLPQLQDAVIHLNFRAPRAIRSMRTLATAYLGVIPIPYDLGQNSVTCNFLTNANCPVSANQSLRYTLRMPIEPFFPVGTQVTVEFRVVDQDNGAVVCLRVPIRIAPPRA
Protocol: (§1) Emission fluorescence spectra were recorded on a Horiba scientific Fluoromax-4 spectrofluorometer at room temperature in a right-angle configuration, with a 1 cm light path quartz cuvette and 5 nm slits for both excitation and emission. Proteins were dissolved in 50 mM Tris–HCl buffer, pH 7.4, while ligands were added as 1 mM methanol solutions.
The probe was excited at 337 nm and emission spectra were recorded between 380 and 450 nm. […] Data obtained with 1-NPN were analyzed with Prism software.

HarmNPC2-1 [2] = biological target: T1, HarmNPC2-1; assay: Quenching of intrinsic tryptophan fluorescence; type: binding; conditions: Figure 2C
Protocol: as §1

displacing the fluorescent probe from the complex (HarmNPC2-1 [1]) | SMILES | binding / affinity for HarmNPC2-1 (in words) (HarmNPC2-1 [1]) | quenching of intrinsic tryptophan fluorescence (HarmNPC2-1 [2])
ineffective | CC/C=C\CCO [Z3-hexen-1-ol] |  | 
ineffective | CCCCCCCCCC(=O)O [decanoic acid] |  | 
ineffective | CC(C)=CCC[C@@H](C)CC=O (racemic) [citronellal] |  | 
ineffective | CC/C=C\CC1C(=O)CCC1CC(=O)OC (centres unmarked) [methyl jasmonate] |  | 
ineffective | CC1=C(C=O)C(C)(C)CC=C1 [safranal] |  | 
ineffective | CC(C)=CCC/C(C)=C/CC/C(C)=C/CO [farnesol] |  | 
ineffective | CCCCCCCCCC=O [decanal] |  | 
ineffective | CCCC/C=C\CCCCCCCCCCO [(Z)-11-hexadecenol] |  | 
ineffective | COC(=O)C=Cc1ccccc1 [methyl cinnamate] |  | 
ineffective | CCCCCCCC=O [octanal] |  | 
ineffective | COC(=O)CC(C)CCC=C(C)C (centres unmarked) [citronellic acid methyl ester] |  | 
ineffective | CCCC/C=C\CCCCCCCCCCOC(C)=O [(Z)-11-hexadecenyl acetate] |  | 
ineffective | CCCCCCCC(=O)O [octanoic acid] |  | 
ineffective | COc1cc(C=O)ccc1O [vanillin] | failed to bind | 
ineffective | CC(=O)/C=C/C1=C(C)CCCC1(C)C [β-ionone] |  | 

Second part, the molecule before the results:

SMILES | displacing the fluorescent probe from the complex (HarmNPC2-1 [1]) | binding / affinity for HarmNPC2-1 (in words) (HarmNPC2-1 [1]) | quenching of intrinsic tryptophan fluorescence (HarmNPC2-1 [2])
COc1cc(/C=C/C=O)ccc1O [coniferyl aldehyde] |  | moderate binding | 
O=c1c(O)c(-c2ccc(O)c(O)c2)oc2cc(O)cc(O)c12 [quercetin] |  |  | quenching of intrinsic tryptophan fluorescence in a dose-dependent fashion
CCCC=CC=CC=O [2,4-octadienal] | ineffective |  | 
Cc1ccc(C=O)cc1 [4-methyl benzaldehyde] | ineffective |  | 
COc1cc(CNC(=O)CCCC/C=C/C(C)C)ccc1O [capsaicin] | ineffective | failed to bind | 
O=CCc1ccccc1 [2-phenylacetaldehyde] | ineffective |  | 
CCCC/C=C\CCCCCCCCCC=O [(Z)-11-hexadecenal] | ineffective |  | 
COc1ccc(C=O)cc1 [4-methoxy benzaldehyde] | ineffective |  | 
CCCCCCCO [1-heptanol] | ineffective |  | 
C=C(C)C1CC=C(C)C(=O)C1 (centres unmarked) [carvone] | ineffective |  | 
COc1ccc([C@@H]2CC(=O)c3c(O)cc(O[C@@H]4O[C@H](CO[C@@H]5O[C@@H](C)[C@H](O)[C@@H](O)[C@H]5O)[C@@H](O)[C@H](O)[C@H]4O)cc3O2)cc1O [hesperidin] |  | the worst | 
CCCC(O)CC (centres unmarked) [3-hexanol] | ineffective |  | 
O=Cc1ccccc1 [benzaldehyde] | ineffective |  | 
CCCCC(C)O (centres unmarked) [2-hexanol] | ineffective |  | 
C=CC(O)CCCCC (centres unmarked) [1-octen-3-ol] | ineffective |  | 
OCc1ccc2c(c1)OCO2 [piperonyl alcohol] | ineffective | failed to bind | 
O=Cc1ccccc1O [2-hydroxy benzaldehyde] | ineffective |  | 
CCCCCC/C=C\CCCCCCCC=O [(Z)-9-hexadecenal] | ineffective |  | 
C=CCc1ccc(O)c(OC)c1 [eugenol] | ineffective | failed to bind | 
Cc1cc2c(C(C)C)c(O)c(O)c(C=O)c2c(O)c1-c1c(C)cc2c(C(C)C)c(O)c(O)c(C=O)c2c1O [gossypol] |  | best ligand; also recorded: the best | quenching of intrinsic tryptophan fluorescence in a dose-dependent fashion
O=C/C=C/c1ccccc1 [cinnamaldehyde] | ineffective | failed to bind | 
C[C@]12CC[C@@H]3c4ccc(O)cc4CC[C@H]3[C@@H]1CC[C@@H]2O [β-estradiol] | ineffective |  | 
c1ccc2[nH]ccc2c1 [indole] | ineffective |  | 
